Where “and” joins values, the source holds several entries; their conditions need not be identical. Equal entries are not always repeated. Where two headings read alike, the source gives them in different places.
Experiments:
[1] = Cellular toxicity (CellTiter-Glo) in HepG2.2.15 cells; type: cell-based; settings: human
Method: Cellular assays method 1: Cellular assays: The HBV producing cell line HepG2.2.15 was cultured in DMEM/F12 containing 10% fetal bovine serum (FBS), 100 U/ml penicillin and 100 μg/ml streptomycin (Invitrogen). Compounds of the disclosure in DMSO was added into the culture medium when cell reached 100% confluence. The final concentration of DMSO was adjusted to 0.5%. Culture medium was replaced in two days and the cell was cultured for additional two days in the presence of compound. HBsAg inhibition in culture medium was then detected with AlphaLisa assay using anti-HBsAg antibodies of 10-H05H and 60C-CR2100RB from Fitzgerald Internantional. To examine the change of nucleic acid, total RNA was extracted with Trizol reagents and resolved in glyoxal agarose gel. HBV RNA blotted onto nitrocellulose membrane was measured with P32 labeled ribo-probe. Reduction and shortening of viral RNA indicates on target effect of the tested compound. […] HepG2.2.15 cells were first seeded in 96-well plate (Corning, Cat #: CLS3595) at density of 10,000 cells/well in 100 ul DMEM/F12 medium containing 10% FBS. When cells reached 100% confluence, treatment with compounds of the disclosure was initiated, and cells were cultured in the way as described for HBsAg inhibition study. Four days post drug treatment, 100 ul of CellTiter-Glo reagents (Promega, Cat #G7570) were added into each well and the mixture was incubated at 23° C. for 12 minutes, followed by the reading of luminescent signal in Tecan's Infinite 200 PRO. Compound IC50 on HBsAg and CC50 on cell viability were calculated using Graphpad prism. The IC50 and CC50 are defined as the compound concentration (or conditioned media log dilution) at which HBsAg secretion and cytotoxicity, respectively, are reduced by 50% compared to the no drug control.
Cellular assays method 2: HepG2.2.15 cells were seeded in duplicate into white, 96-well plates at 1.5×10^4 cells/well. The cells were treated with a 3-fold serial dilution series of the compounds in DMSO. The final DMSO concentration in all wells was 1%, and DMSO was used as no drug control. The HBsAg chemiluminescence immunoassay (CLIA) kit (Autobio Diagnostics Co., Zhengzhou, China) was used to measure the levels of secreted HBV antigens semi-quantitatively. For the detection, 50 μL/well culture supernatant was used and the procedure conducted as directed by manufacturer's instructions. The cytotoxicity was measured using CellTiter-Glo (Promega, Madison, WI, USA, catalogue no. G7571). Dose-response curves were generated and the IC50 and CC50 values were calculated using Graphpad prism. The IC50 and CC50 are defined as the compound concentration (or conditioned media log dilution) at which HBsAg secrection and cytotoxicity, respectively, are reduced by 50% compared to the no drug control.

[2] = Liver distribution after 8 mg/kg oral dose (liver vs plasma); type: in vivo, CD1 mice
Method: (§1) Protocol for pharmacokinetic and tissue distribution studies. The pharmacokinetics of the compounds was studied in CD1 mice after intravenous (IV) and oral gavage (PO) administration. Mouse PK studies was conducted at 3 mg/kg (IV) and 8 mg/kg (PO). Plasma samples obtained from dosed animals, at ten time points, including 5, 15 and 30 minutes and 1, 1.5, 2, 4, 6, 8 and 24 hr post-dose for processing to plasma, were prepared for analysis by means of a single step protein precipitation technique, by adding 200 μL of acetonitrile containing an IS mixture (labetalol, imipramine and diclofenac) to 50 μL aliquots of individual subject samples. Samples were mixed by vortex for homogeneity and then subjected to centrifugation at 4000 rpm for 10 min. The supernatant (200 μL) was collected and injected into the LC-MS/MS for analysis. Pharmacokinetic parameters will be calculated using established non-compartmental methods. The liver distribution of the compounds was studied in the PO group and liver tissues were collected at each time point after PO administration. Accurately weighed whole liver tissues were collected in a 50 mL tube, and 3 volumes per weight of water will be added. Tissue samples were homogenized and 50 μL of the homogenates will be processed along with plasma samples as described above.

[3] = Pharmacokinetics after 8 mg/kg oral (PO) administration, plasma; type: in vivo, CD1 mice; parameters: AUClast/D: unit not given here
Method: as §1

[4] = CD1, mouse, plasma, 8 mg/kg oral, mean

COc1cc2c(cc1OCCCCCCC(=O)O)C[C@@H](C(C)C)n1cc(C(=O)O)c(=O)cc1-2 [Example 6, (S)-9-((6-carboxyhexyl)oxy)-6-isopropyl-10-methoxy-2-oxo-6,7-dihydro-2H-pyrido[2,1-a]isoquinoline-3-carboxylic acid]
CC50 [1]: > 10 µM | Liver concentration ([2]; 0.25 h, individual animals): 428 ng/g and 372 ng/g and 199 ng/g | Ratio (liver/plasma) ([2]; 0.25 h, individual animals): 41.6 and 19.1 and 10.8 | Liver concentration ([2]; 0.5 h, individual animals): 241 ng/g and 321 ng/g | Ratio (liver/plasma) ([2]; 0.5 h, individual animals): 24.3 and 35.6 | Liver concentration ([2]; 1 h, individual animals): 237 ng/g and 404 ng/g | Ratio (liver/plasma) ([2]; 1 h, individual animals): 39.9 and 43.6 | Liver concentration ([2]; 2 h, individual animals): 377 ng/g and 299 ng/g and 108 ng/g | Ratio (liver/plasma) ([2]; 2 h, individual animals): 65.8 and 47.3 | Liver concentration ([2]; 4 h, individual animals): 128 ng/g and 179 ng/g | Ratio (liver/plasma) ([2]; 4 h, individual animals): 42.2 and 43.5 | Liver concentration ([2]; 6 h, individual animals): 130 ng/g and 43.2 ng/g and 55.6 ng/g | Ratio (liver/plasma) ([2]; 6 h, individual animals): 28.2 and 23.0 | Liver concentration ([2]; 8 h, individual animals): 106 ng/g and 37.6 ng/g and 45.6 ng/g | Ratio (liver/plasma) ([2]; 8 h, individual animals): 17.8 | concentration at 0.5 h ([2]; CD1, mouse, liver, oral, 8 mg/kg, 0.5 h, individual animals): 366 ng/g | concentration at 1 h ([2]; CD1, mouse, liver, oral, 8 mg/kg, 1 h, individual animals): 259 ng/g | concentration at 4 h ([2]; CD1, mouse, liver, oral, 8 mg/kg, 4 h, individual animals): 106 ng/g | Kp at 0.25 h ([2]; CD1, mouse, liver/plasma, oral, 8 mg/kg, 0.25 h, mean, read-out: Ratio (liver/plasma) Mean): 23.8 | Kp at 0.5 h ([2]; CD1, mouse, liver/plasma, oral, 8 mg/kg, 0.5 h, individual animals, read-out: Ratio (liver/plasma)): 38.9 | Kp at 0.5 h ([2]; CD1, mouse, liver/plasma, oral, 8 mg/kg, 0.5 h, mean, read-out: Ratio (liver/plasma) Mean): 32.9 | Kp at 1 h ([2]; CD1, mouse, liver/plasma, oral, 8 mg/kg, 1 h, individual animals, read-out: Ratio (liver/plasma)): 63.1 | Kp at 1 h ([2]; CD1, mouse, liver/plasma, oral, 8 mg/kg, 1 h, mean, read-out: Ratio (liver/plasma) Mean): 48.9 | Kp at 2 h ([2]; CD1, mouse, liver/plasma, oral, 8 mg/kg, 2 h, individual animals, read-out: Ratio (liver/plasma)): 69.6 | Kp at 2 h ([2]; CD1, mouse, liver/plasma, oral, 8 mg/kg, 2 h, mean, read-out: Ratio (liver/plasma) Mean): 60.9 | Kp at 4 h ([2]; CD1, mouse, liver/plasma, oral, 8 mg/kg, 4 h, individual animals, read-out: Ratio (liver/plasma)): 28.9 | Kp at 4 h ([2]; CD1, mouse, liver/plasma, oral, 8 mg/kg, 4 h, mean, read-out: Ratio (liver/plasma) Mean): 38.2 | Kp at 6 h ([2]; CD1, mouse, liver/plasma, oral, 8 mg/kg, 6 h, individual animals, read-out: Ratio (liver/plasma)): 45.6 | Kp at 6 h ([2]; CD1, mouse, liver/plasma, oral, 8 mg/kg, 6 h, mean, read-out: Ratio (liver/plasma) Mean): 32.3 | Kp at 8 h ([2]; CD1, mouse, liver/plasma, oral, 8 mg/kg, 8 h, individual animals, read-out: Ratio (liver/plasma)): 15.9 | Kp at 8 h ([2]; CD1, mouse, liver/plasma, oral, 8 mg/kg, 8 h, mean, read-out: Ratio (liver/plasma) Mean): 16.8 | F ([3]; 8 mg/kg oral vs 3 mg/kg IV, mean): 5.09% | Plasma concentration ([3]; 8 mg/kg oral, 0.25 h, individual animals): 10.3 ng/mL and 19.5 ng/mL and 18.4 ng/mL | Plasma concentration ([3]; 8 mg/kg oral, 0.5 h, individual animals): 9.93 ng/mL and 9.00 ng/mL and 9.40 ng/mL | Plasma concentration ([3]; 8 mg/kg oral, 1 h, individual animals): 4.10 ng/mL and 5.94 ng/mL and 9.27 ng/mL | Plasma concentration ([3]; 8 mg/kg oral, 2 h, individual animals): 5.41 ng/mL and 4.55 ng/mL and 2.29 ng/mL | Plasma concentration ([3]; 8 mg/kg oral, 4 h, individual animals): 3.03 ng/mL and 4.12 ng/mL and 3.68 ng/mL | Plasma concentration ([3]; 8 mg/kg oral, 6 h, individual animals): 1.53 ng/mL and 2.42 ng/mL and 2.85 ng/mL | Plasma concentration ([3]; 8 mg/kg oral, 8 h, individual animals): 6.65 ng/mL and 2.11 ng/mL and BLOQ | Plasma concentration ([3]; 8 mg/kg oral, 24 h, individual animals): BLOQ | AUClast/D ([3]; 8 mg/kg oral, mean): 4.33 | concentration at 0.25 h ([3]; CD1, mouse, plasma, oral, 8 mg/kg, 8 mg/kg oral, 0.25 h, individual animals, read-out: Plasma concentration): 18.4 ng/mL | concentration at 0.25 h ([3]; CD1, mouse, plasma, oral, 8 mg/kg, 8 mg/kg oral, 0.25 h, mean, read-out: Mean plasma concentration): 16.1 ng/mL | concentration at 0.5 h ([3]; CD1, mouse, plasma, oral, 8 mg/kg, 8 mg/kg oral, 0.5 h, individual animals, read-out: Plasma concentration): 9.4 ng/mL | concentration at 0.5 h ([3]; CD1, mouse, plasma, oral, 8 mg/kg, 8 mg/kg oral, 0.5 h, mean, read-out: Mean plasma concentration): 9.44 ng/mL | concentration at 1 h ([3]; CD1, mouse, plasma, oral, 8 mg/kg, 8 mg/kg oral, 1 h, mean): 6.44 ng/mL | concentration at 2 h ([3]; CD1, mouse, plasma, oral, 8 mg/kg, 8 mg/kg oral, 2 h, mean): 4.08 ng/mL | concentration at 4 h ([3]; CD1, mouse, plasma, oral, 8 mg/kg, 8 mg/kg oral, 4 h, individual animals, read-out: Plasma concentration): 3.68 ng/mL | concentration at 4 h ([3]; CD1, mouse, plasma, oral, 8 mg/kg, 8 mg/kg oral, 4 h, mean, read-out: Mean plasma concentration): 3.61 ng/mL | concentration at 6 h ([3]; CD1, mouse, plasma, oral, 8 mg/kg, 8 mg/kg oral, 6 h, individual animals, read-out: Plasma concentration): 2.85 ng/mL | concentration at 6 h ([3]; CD1, mouse, plasma, oral, 8 mg/kg, 8 mg/kg oral, 6 h, mean, read-out: Mean plasma concentration): 2.27 ng/mL | concentration at 8 h ([3]; CD1, mouse, plasma, oral, 8 mg/kg, 8 mg/kg oral, 8 h, mean): 4.38 ng/mL | AUC(0-t) [3, 4]: 34.7 ng·h/mL | Cmax [3, 4]: 16.1 ng/mL | Tmax [3, 4]: 15 min
